System: MV-4-11 cells
Assay: Gene expression microarray analysis (Affymetrix PrimeView) and GSEA
Type: cell-based, human
Settings: ProbeSet 11733176_x_at; LIST B

Q: How did the “RFU, ZNF507” value turn out when Nc1ccc(-c2cccs2)cc1NC(=O)c1ccc2c(c1)cc(C1CC1)n2CCN1CCOCC1 [ACY-1035] was run?
A: The value was 24.05 RFU.
